Test results as given in US20210244737A1, “COMPOSITIONS FOR TREATING MELANOMA” (INSERM (INSTITUT NATIONAL DE LA SANTÉ ET DE LA RECHERCHE …, priority 2018, published 2021).

Assays:
[1] = target: T1, DDR2 (Homo sapiens, UniProt Q16832); experiment: Type I collagen-mediated DDR2 tyrosine phosphorylation in melanoma cells (immunoblot); format: cell-based; settings: data not shown
T1 sequence (Q16832 22-855): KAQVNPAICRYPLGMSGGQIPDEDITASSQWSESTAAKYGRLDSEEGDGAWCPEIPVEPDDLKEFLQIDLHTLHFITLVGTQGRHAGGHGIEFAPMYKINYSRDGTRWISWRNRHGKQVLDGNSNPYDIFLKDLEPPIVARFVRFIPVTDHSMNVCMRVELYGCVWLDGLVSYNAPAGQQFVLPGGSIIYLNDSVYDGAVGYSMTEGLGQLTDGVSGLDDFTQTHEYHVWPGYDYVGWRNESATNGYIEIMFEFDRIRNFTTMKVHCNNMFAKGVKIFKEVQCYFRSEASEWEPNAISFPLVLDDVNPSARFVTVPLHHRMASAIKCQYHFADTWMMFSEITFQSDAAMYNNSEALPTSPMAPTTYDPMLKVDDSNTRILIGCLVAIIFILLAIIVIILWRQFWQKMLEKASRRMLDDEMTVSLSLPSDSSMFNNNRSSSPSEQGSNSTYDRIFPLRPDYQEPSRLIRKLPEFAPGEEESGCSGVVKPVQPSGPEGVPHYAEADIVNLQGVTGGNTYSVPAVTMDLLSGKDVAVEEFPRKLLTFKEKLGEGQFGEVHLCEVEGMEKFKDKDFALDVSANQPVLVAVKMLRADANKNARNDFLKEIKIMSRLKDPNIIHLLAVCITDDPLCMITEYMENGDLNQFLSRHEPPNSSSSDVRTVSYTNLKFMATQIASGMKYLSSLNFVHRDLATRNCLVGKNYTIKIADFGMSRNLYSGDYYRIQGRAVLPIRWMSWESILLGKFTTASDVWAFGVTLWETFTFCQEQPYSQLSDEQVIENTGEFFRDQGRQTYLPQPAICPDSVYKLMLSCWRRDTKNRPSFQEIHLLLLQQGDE

[2] = tested on: 1205Lu melanoma cells; experiment: Apoptosis by flow cytometry (AnnexinV-FITC/PI) of cells on MAF-derived ECM; format: cell-based; settings: 10 μM Imatinib in presence of 2 μM Vemurafenib, 48 h, 1205Lu on 3D-ECM
Procedure: Cell cycle profiles were determined by flow cytometry analysis of propidium iodide (PI)-stained cells. Melanoma cells cultured onto cell-derived matrices and treated with or without 2 μM vemurafenib for 48 h were washed, fixed in 80% ethanol and incubated at −20° C. for 24 h. Cells were then stained for 20 min at 37° C. in buffer containing 40 μg/ml PI and 20 μg/ml ribonuclease A from bovine pancreas. Cell cycle profiles were collected on a FACS Canto. Cell death was evaluated by flow cytometry following staining with AnnexinV/PI (eBioscience).

[3] = tested on: 1205Lu melanoma cells; settings: Kaplan-Meier, 1205Lu melanoma-bearing mice
Procedure: Mouse experiments were carried out in accordance with the Institutional Animal Care and the local ethical committee. […] Tumor was measured by caliper and the volume was calculated using the formula: V=tumor width×tumor length 2×0.5. When tumor reached 100 mm^3, mice were randomly grouped into control and test groups. […] Mice in control group were treated with vehicle. […] After animal sacrifice tumors were dissected, fixed in formalin and embedded in paraffin.

Structure (SMILES): Cc1ccc(NC(=O)c2ccc(CN3CCN(C)CC3)cc2)cc1Nc1nccc(-c2cccnc2)n1 [Imatinib, (4-(4-methylpiperazin-l-yhnethyl)-N-[4-methyl-3-(4-pyridin-3-yl)pyrimidin-2-ylamino)phenyl-benzamide)]
- type I collagen-mediated DDR2 tyrosine phosphorylation [1]: efficiently abrogated
- apoptosis (AnnexinV/PI cytometry) [2]: Induction of apoptosis

Structure (SMILES): CCCS(=O)(=O)Nc1ccc(F)c(C(=O)c2c[nH]c3ncc(-c4ccc(Cl)cc4)cc23)c1F [Vemurafenib]
- Median time to progression [3]: 36 days
